Data set [1] in a line: Selectivity index, ratio of IC50 for human KB cells to IC50 for Plasmodium falciparum W2. Type of data set: toxicity, cell-based. The following applies: read-out: Ratio IC50.
The test system of another data set is KB. In words: cells. Type of data set: ADME, cell-based. The note with it: Homo sapiens.
Data set [2] is described as follows: Selectivity index, ratio of IC50 for human KB cells to IC50 for Plasmodium falciparum D6. The class given is toxicity, cell-based. The note with it: read-out: Ratio IC50.
Data set [3] deals with Plasmodium falciparum. In words: microbe, parasite or virus in culture. Type of data set: functional, organism-based. The note with it: W2.
Description: Antiplasmodial activity against Plasmodium falciparum W2
Data set [4] concerns Plasmodium falciparum. In words: microbe, parasite or virus in culture. The class given is functional, organism-based. The note with it: D6.
Description: Antiplasmodial activity against Plasmodium falciparum D6

In brackets after ≈: the same amount, converted by molar mass.

Description for KB: Cytotoxicity against human KB cells

For `CC(C)=C[C@H]1C[C@H](C)[C@H]2CC[C@](C)(C#N)[C@H]3CCC(C)=C1[C@H]23`, the results for the selectivity ratio in data set [1] and in data set [2] were 590 and 260, respectively. Besides, the 50% inhibitory concentration (IC50) – broadly, the concentration that gives 50% inhibition – in the data set with KB came out at 15.2 µg/mL (≈ 51.1 µM); in the data set on Plasmodium falciparum [3], 0.0256 µg/mL (≈ 0.0861 µM); in the data set with Plasmodium falciparum [4] it was 0.0585 µg/mL (≈ 0.197 µM).
For `C=C1CC[C@H]2[C@H]3[C@H](CC[C@]2(C)C#N)[C@@H](C)C[C@@H](CC(C)(C)N=C=S)[C@H]13`, the selectivity ratio in data set [1] is more than 183; in data set [2] it was more than 42.6. Moreover, the IC50 with KB is more than 20 µg/mL; with Plasmodium falciparum [3] it was 0.109 µg/mL (≈ 0.306 µM); in the data set with Plasmodium falciparum [4] it was 0.47 µg/mL (≈ 1.32 µM).
Take `CC(C)=C[C@@H]1C[C@H](C)[C@H]2CC[C@](C)(C#N)[C@H]3CC=C(C)[C@@H]1[C@H]23`: the selectivity ratio in data set [1] is more than 150; in data set [2] it was more than 66.2. For the same compound, the IC50 is more than 20 µg/mL with KB, 0.133 µg/mL (≈ 0.447 µM) in the data set on Plasmodium falciparum [3] and 0.302 µg/mL (≈ 1.02 µM) in the data set with Plasmodium falciparum [4].
On to `CC(C)=CCC[C@@H](C)[C@H]1CC[C@](C)(N=C=S)[C@H]2CCC(C)=C[C@H]12`, for which the IC50 in the data set with KB is more than 20 µg/mL; in the data set on Plasmodium falciparum [3], more than 10 µg/mL; in the data set with Plasmodium falciparum [4] it was more than 10 µg/mL.
In the case of `C[C@@H]1C[C@@H]2C[C@H](C)[C@H]3CC[C@](C)(N=C=S)[C@H]4CC[C@@H]([C@@H]2[C@H]34)[C@]1(C)C#N`, the figures for the selectivity ratio in data set [1] and in data set [2] were 56 and 35, respectively. Moreover, the IC50 in the data set with KB was 1.6 µg/mL (≈ 4.49 µM); in the data set on Plasmodium falciparum [3] it was 0.0285 µg/mL (≈ 0.0799 µM); with Plasmodium falciparum [4], 0.0451 µg/mL (≈ 0.126 µM).
Taken in the same sequence, the figures for `C=C1CC[C@H]2[C@H]3[C@H](CC[C@]2(C)C#N)[C@@H](C)C[C@H](C=C(C)C)[C@H]13` were 340, 230, 3.2 µg/mL (≈ 10.8 µM), 0.0093 µg/mL (≈ 0.0313 µM) and 0.0141 µg/mL (≈ 0.0474 µM).
On the same counts, the results for `C[C@@H]1C[C@@H]2C[C@H](C)[C@H]3CC[C@](C)(C#N)[C@H]4CC[C@@H]([C@@H]2[C@H]34)[C@]1(C)N=C=O` are 1710, 1340, 4.3 µg/mL (≈ 12.6 µM), 0.0025 µg/mL (≈ 0.00734 µM) and 0.0032 µg/mL (≈ 0.0094 µM).
`C=C[C@H]1CN2CC[C@H]1C[C@H]2[C@H](O)c1ccnc2ccc(OC)cc12` [QUININE]: the selectivity ratio in data set [1] is more than 370; in data set [2], more than 1800. In addition, the IC50 is more than 20 µg/mL with KB and 0.0546 µg/mL (≈ 0.168 µM) in the data set on Plasmodium falciparum [3].
On to `C=C(C)C1CC[C@@H]2[C@H]3CCC(C)[C@H]3[C@H]12` (stereo partly drawn), for which the figures for the IC50 in the data set with KB, with Plasmodium falciparum [3] and in the data set with Plasmodium falciparum [4] were more than 20 µg/mL, more than 10 µg/mL and more than 10 µg/mL, respectively.
Regarding `[C-]#[N+][C@]1(C)[C@H](C)C[C@@H]2C[C@H](C)[C@H]3CC[C@](C)([N+]#[C-])[C@H]4CC[C@H]1[C@@H]2[C@H]34` [DIISOCYANOADOCIANE], the selectivity ratio in data set [1] was 1100; in data set [2], 1000. In addition, the IC50 in the data set with KB is 4.7 µg/mL (≈ 14.5 µM); with Plasmodium falciparum [3] it was 0.0043 µg/mL (≈ 0.0133 µM).
Regarding `C[C@@H]1C[C@@H]2C[C@H](C)[C@H]3CC[C@](C)(N=C=O)[C@H]4CC[C@@H]([C@@H]2[C@H]34)[C@]1(C)C#N`, the selectivity ratio in data set [1] came out at 36; in data set [2] it was 27. Besides, the IC50 in the data set on KB is 2 µg/mL (≈ 5.87 µM); in the data set with Plasmodium falciparum [3], 0.0561 µg/mL (≈ 0.165 µM); in the data set with Plasmodium falciparum [4], 0.0749 µg/mL (≈ 0.22 µM).
Take `O=Cc1ccc(O)cc1` [4-HYDROXYBENZALDEHYDE]: the selectivity ratio in data set [1] is more than 3.6; in data set [2], more than 2.7. In addition, the figures for the IC50 in the data set with KB, in the data set on Plasmodium falciparum [3] and with Plasmodium falciparum [4] were more than 20 µg/mL, 5.56 µg/mL (≈ 45.5 µM) and 7.33 µg/mL (≈ 60 µM), respectively.
As for `COc1ccc(CO)cc1`, the IC50 with KB is more than 20 µg/mL; in the data set on Plasmodium falciparum [3] it was more than 10 µg/mL; in the data set with Plasmodium falciparum [4] it was more than 10 µg/mL.
With `C[C@H]1C[C@H]2CC(C)(C)C=C3CC[C@H]4[C@@H]([C@@H]1CC[C@]4(C)C#N)[C@@H]32`, the values for the selectivity ratio in data set [1] and in data set [2] were 610 and 200, respectively. Also, the values for the IC50 with KB, in the data set on Plasmodium falciparum [3] and in the data set with Plasmodium falciparum [4] were 14.5 µg/mL (≈ 48.7 µM), 0.0238 µg/mL (≈ 0.08 µM) and 0.0741 µg/mL (≈ 0.249 µM), respectively.
For the compound `C=C(C)/C=C/[C@]12C[C@H](C)[C@H]3CC[C@](C)(C#N)[C@@H](CC[C@H]1C)[C@@H]32`, the selectivity ratio in data set [1] stood at 640; in data set [2] it was 210. For the same compound, the values for the 50% inhibitory concentration (IC50) with KB, in the data set with Plasmodium falciparum [3] and with Plasmodium falciparum [4] were 19.1 µg/mL (≈ 64.2 µM), 0.0297 µg/mL (≈ 0.0998 µM) and 0.09 µg/mL (≈ 0.303 µM), respectively.
On the same counts, the results for `C=C(C)C[C@@H]1C[C@H](C)[C@H]2CC[C@](C)(C#N)[C@H]3CCC(=C)[C@@H]1[C@H]23` are more than 82.6, more than 38.5, more than 20 µg/mL, 0.242 µg/mL (≈ 0.813 µM) and 0.52 µg/mL (≈ 1.75 µM).
For the compound `C=C(C)[C@@H]1C=C2C(C)CC[C@@H]2C(C)CC1` (stereo partly drawn), the selectivity ratio in data set [1] was more than 2.3. For the same compound, the figures for the 50% inhibitory concentration (IC50) in the data set on KB, in the data set on Plasmodium falciparum [3] and in the data set on Plasmodium falciparum [4] were more than 20 µg/mL, 8.46 µg/mL (≈ 41.4 µM) and more than 10 µg/mL, respectively.
Take `C=C(C)C1[C@@H]2C(C)CC[C@@H]2[C@@]2(C)CC[C@@H]12` (stereo partly drawn): the half-inhibitory concentration (IC50) with KB is more than 20 µg/mL; in the data set on Plasmodium falciparum [3] it was more than 10 µg/mL; with Plasmodium falciparum [4], more than 10 µg/mL.
For the compound `C=C1CC[C@H]2[C@H]3[C@H](CC[C@]2(C)N=C=S)[C@@H](C)C[C@H](C=C(C)C)[C@]13O`, the selectivity ratio in data set [1] amounted to 12; in data set [2], 6.6. The IC50 in the data set with KB was determined as 5.3 µg/mL (≈ 15.3 µM); in the data set with Plasmodium falciparum [3], 0.423 µg/mL (≈ 1.22 µM); in the data set on Plasmodium falciparum [4], 0.797 µg/mL (≈ 2.31 µM).
Take `CC1=C[C@@H]2C[C@H](C)[C@H]3CC[C@](C)(C#N)[C@H]4CC[C@@H]([C@@H]2[C@H]34)[C@@H]1C`: the selectivity ratio in data set [1] stood at 930; in data set [2], 290. Moreover, the IC50 is 18.2 µg/mL (≈ 61.2 µM) with KB, 0.0195 µg/mL (≈ 0.0655 µM) in the data set with Plasmodium falciparum [3] and 0.0625 µg/mL (≈ 0.21 µM) in the data set on Plasmodium falciparum [4].
On the same counts, the results for `C[C@H]1C[C@H]2CC(C)(C)CC3=CC[C@H]4[C@@H]([C@@H]1CC[C@]4(C)C#N)[C@@H]32` are more than 700, more than 240, more than 20 µg/mL, 0.0284 µg/mL (≈ 0.0955 µM) and 0.0849 µg/mL (≈ 0.285 µM).
With `OC(c1cc(C(F)(F)F)nc2c(C(F)(F)F)cccc12)C1CCCCN1` (stereo not drawn) [MEFLOQUINE], the selectivity ratio amounted to 970 in data set [1] and 490 in data set [2].
With `C[C@@H]1CC[C@H]2[C@@H](C)C(=O)O[C@@H]3O[C@@]4(C)CC[C@@H]1[C@]32OO4` [ARTEMISININ], the results for the IC50 in the data set on KB and in the data set on Plasmodium falciparum [3] were more than 20 µg/mL and 0.0021 µg/mL (≈ 0.00744 µM), respectively.

Values taken from ChEMBL document CHEMBL1158252, “Antimalarial activity: the search for marine-derived natural products with selective antimalarial activity” (J Nat Prod, 1996).
